The values that follow come from article PMC12596218 (Journal of Lipid Research, 2025).

Data set [1] has as its system mAsbt. Nature of the data set: mAsbt inhibition and TC transport by Hallén et al. (2002). Format: cell-based, mouse. Particulars: from Ki values of ref 42.
Data set [2] addresses mAsbt. Particulars: ref 42 Hallén et al. (2002); read-out: Ki mAsbt inhibition; cited from earlier work.
In data set [3] the target is T1, ASBT (Homo sapiens, UniProt Q12908).
T1 construct: stably transfected with the full open reading frames of human NTCP, ASBT, SOAT, OATP1B1, OATP1B3, OATP2B1, and murine Asbt (mAsbt); expressed in transfected cells; host or cells: HEK293 (Flp-In), stably transfected, tetracycline-induced
T1 sequence (Q12908 1-348): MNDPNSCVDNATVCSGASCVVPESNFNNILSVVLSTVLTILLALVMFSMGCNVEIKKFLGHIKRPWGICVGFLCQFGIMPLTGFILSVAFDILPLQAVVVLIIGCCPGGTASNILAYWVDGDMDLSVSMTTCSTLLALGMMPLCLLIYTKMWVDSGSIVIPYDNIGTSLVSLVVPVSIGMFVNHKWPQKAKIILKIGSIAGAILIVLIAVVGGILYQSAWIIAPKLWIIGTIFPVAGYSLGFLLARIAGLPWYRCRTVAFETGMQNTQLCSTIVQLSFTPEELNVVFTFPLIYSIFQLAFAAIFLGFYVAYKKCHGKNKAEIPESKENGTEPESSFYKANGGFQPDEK
In words: [3H]TC transport and inhibition assay in ASBT-HEK293 cells. Format: cell-based. Particulars: inhibitor at 100 μM, 1 μM [3H]TC, 10 min. The text has this:
(§1) Human embryonic kidney HEK293 cells, stably transfected with the full open reading frames of human NTCP, ASBT, SOAT, OATP1B1, OATP1B3, OATP2B1, and murine Asbt (mAsbt) were used as reported ([18], [20], [21], [22], [23]). The NTCP, ASBT, and mAsbt constructs were C-terminally tagged with the FLAG epitope, and the SOAT construct was C-terminally tagged with green fluorescent protein. Non-transfected Flp-In HEK293 cells (Thermo Fisher Scientific) served as the control. All cell lines were maintained at 37°C, 5% CO2 and 95% humidity in DMEM/F-12 medium (Thermo Fisher Scientific) supplemented with 10% fetal calf serum (Sigma-Aldrich), 4 mM L-glutamine (PAA) and penicillin/streptomycin (PAA). Expression of the respective carrier protein was induced by tetracycline treatment at 1 μg/ml (Carl Roth GmbH + Co. KG).
(§2) Cells were seeded onto poly-L-lysine-coated 96-well plates, induced with 1 μg/ml tetracycline, and grown to confluence over 72 h at 37°C. Then, cells were washed with tempered (37°C) phosphate-buffered saline (PBS, containing 137.0 mM NaCl, 2.7 mM KCl, 1.5 mM KH2PO4, and 7.3 mM Na2HPO4, at pH 7.4) and preincubated with 80 μl sodium transport buffer (STB, containing 142.9 mM NaCl, 4.7 mM KCl, 1.2 mM MgSO4, 1.2 mM KH2PO4, 1.8 mM CaCl2, and 20.0 mM HEPES, at pH 7.4) for 5 min at 37°C. For inhibition studies, the medium was replaced by 80 μl STB containing the respective inhibitor or solvent alone and cells were further incubated for 5 min at 37°C. Transport experiments were started by adding 20 μl of a 5-fold concentrated substrate solution (solved in STB). For transport experiments under sodium-free conditions the same buffer composition was used as for STB, but sodium chloride was substituted with equimolar concentrations of choline chloride as previously reported ([20], [24]). Transport experiments were stopped by washing twice with ice-cold PBS and the plates were kept cool on ice until adding the lysis buffer [1% sodium dodecyl sulfate (SDS) and 1 N NaOH]. Then, the cell-associated radioactivity of the respective tritium-labeled substrate or ligand was quantified by liquid scintillation counting using MicroScint-20 scintillation cocktail (Revvity) in a Packard Microplate Scintillation Counter TopCount NXT (Packard Instrument Company). For IC50 transport inhibition measurements, the mean uptake values measured in non-carrier-expressing HEK293 control cells were defined as 0% uptake control and were subtracted from all other values. Values from cells without inhibitor and solvent alone were set to 100%. Finally, all net transport data were expressed as uptake or binding as % of control. All transport or inhibition graphs were generated with GraphPad Prism 6 (GraphPad). Determination of half maximal inhibitory concentrations (IC50) was done by nonlinear regression analysis using the equation log (inhibitor) versus response—variable slope settings. All data points of the IC50 curves represent means ± SD of quadruplicate determinations. For Km measurements, BS uptake in the absence of sodium was regarded as carrier-independent unspecific uptake and was subtracted from the transport rates in the presence of sodium to obtain carrier-specific uptake rates (indicated as dashed lines). From the specific uptake rates, Michaelis Menten Km values were calculated by non-linear regression analysis.

The target of data set [4] is T1, ASBT. Nature of the data set: Transport inhibition and recovery assay (inhibitor washout) in ASBT-HEK293 cells. The class given is cell-based. Particulars: 100 μM inhibitor, 5 min preincubation, 1 μM [3H]TC.
Data set [5] has as its target T1, ASBT. Described as above. Format: cell-based. Particulars: 100 μM inhibitor 5 min, 240 min recovery. As to the method: HEK293 cells stably expressing ASBT were seeded onto poly-L-lysine-coated 96-well plates, induced with 1 μg/ml tetracycline, and grown to confluence over 72 h at 37°C. Non-carrier-expressing HEK293 cells were used as control. Then, cells were washed with tempered (37°C) PBS and equilibrated for 5 min with STB. […] After inhibitor preincubation, cells were washed with tempered (37°C) PBS and further incubated in inhibitor-free DMEM (Thermo Fisher Scientific) for 30, 60, 120, or 240 min at 37°C. […] Finally, cell associated radioactivity was determined using the MicroBeta2 liquid scintillation counter (Revvity). For each inhibitor, the mean values from noncarrier-expressing HEK293 cells were set to 0% and transport measurements in the absence of inhibitor (solvent control) were set to 100%.
In the second setup, the inhibitor was thoroughly washed out after the preincubation phase and cells were placed on inhibitor-free medium for different time intervals of 0–240 min (indicated by “recovery time” in Fig. 7A).

For data set [6], the target named is T2, SOAT (Homo sapiens, UniProt Q3KNW5).
T2 construct: stably transfected with the full open reading frames of human NTCP, ASBT, SOAT, OATP1B1, OATP1B3, OATP2B1, and murine Asbt (mAsbt); expressed in transfected cells; host or cells: HEK293 (Flp-In), stably transfected, tetracycline-induced
T2 sequence (Q3KNW5 1-377): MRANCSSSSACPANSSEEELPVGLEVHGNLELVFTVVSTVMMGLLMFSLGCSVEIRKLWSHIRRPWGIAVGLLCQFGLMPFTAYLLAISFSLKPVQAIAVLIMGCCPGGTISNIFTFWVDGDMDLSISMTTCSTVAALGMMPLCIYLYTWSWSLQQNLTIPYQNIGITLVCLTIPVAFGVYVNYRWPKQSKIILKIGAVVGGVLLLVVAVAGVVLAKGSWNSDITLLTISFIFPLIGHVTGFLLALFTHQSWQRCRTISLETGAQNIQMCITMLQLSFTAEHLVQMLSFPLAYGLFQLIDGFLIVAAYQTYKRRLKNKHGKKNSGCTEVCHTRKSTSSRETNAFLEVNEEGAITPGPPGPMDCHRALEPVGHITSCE
In words: [3H]DHEAS transport inhibition assay in SOAT-HEK293 cells. Particulars: inhibitor at 100 μM, 1 μM [3H]DHEAS, 10 min. The class given is cell-based.
Description: as §1, §2

Substrate in data set [7]: C[C@H](CCC(=O)NCCS(=O)(=O)O)[C@H]1CC[C@H]2[C@@H]3[C@H](O)C[C@@H]4C[C@H](O)CC[C@]4(C)[C@H]3C[C@H](O)[C@]12C
Nature of the data set: cells, lysate or membranes. Particulars: other: sodium-dependent specific uptake, initial linear phase, pH 7.4.

Positions count from the first letter of the chain named. Numbers in names are those of the source.

What is called Ki is a measure of affinity in units of concentration, obtained from inhibition or displacement. Regarding `CCCC[C@]1(CC)CS(=O)(=O)c2ccccc2[C@@H](c2ccccc2)N1` [2164U90], the “Difference in inhibitor potency mAsbt versus ASBT” value in data set [1] is reported as 150 fold. Further, the Ki in data set [2] was 0.068 µM. Consider `Cc1c(C)c2c(c(C)c1O)CCC(C)(COc1ccc(CC3SC(=O)NC3=O)cc1)O2` (stereo not drawn) [troglitazone], for which the “Inhibition of ASBT [3H]TC transport” value in data set [3] is reported as “significantly inhibited”. Also, in data set [4], the “ASBT inhibition with inhibitor present during uptake (inhibitor + [3H]TC)” value is listed as “nearly complete ASBT inhibition”. In addition, in data set [5], the “ASBT recovery after washout and 240 min in inhibitor-free medium” value is on record as “only partial recovery”. For the same molecule, the “Inhibition of SOAT [3H]DHEAS transport” value in data set [6] was “significantly inhibited”.

B1: NTCP (Homo sapiens) (protein)
chain: MEAHNASAPFNFTLPPNFGKRPTDLALSVILVFMLFFIMLSLGCTMEFSKIKAHLWKPKGLAIALVAQYGIMPLTAFVLGKVFRLKNIEALAILVCGCSPGGNLSNVFSLAMKGDMNLSIVMTTCSTFCALGMMPLLLYIYSRGIYDGDLKDKVPYKGIVISLVLVLIPCTIGIVLKSKRPQYMRYVIKGGMIIILLCSVAVTVLSAINVGKSIMFAMTPLLIATSSLMPFIGFLLGYVLSALFCLNGRCRRTVSMETGCQNVQLCSTILNVAFPPEVIGPLFFFPLLYMIFQLGEGLLLIAIFWCYEKFKTPKDKTKMIYTAATTEETIPGALGNGTYKGEDCSPCTA
By Km is commonly meant the concentration of substrate that gives half-maximal velocity. As to B1, the Km in data set [7] (37.0 °C) worked out at 90.9 µM.

B2: NTCP M290S (NTCP→ASBT) (Homo sapiens; M290S) (protein)
chain: B1 chain with M290S
On to B2, for which the Km in data set [7] was found to be 15.9 µM.

B3: NTCP M290T/I291V (NTCP→mAsbt) (Homo sapiens; I291V/M290T) (protein)
chain: B1 chain with M290T, I291V
Regarding B3, the Km in data set [7] is 69.5 µM.

B4: murine Asbt (mAsbt) (Mus musculus) (protein)
chain: MDNSSVCPPNATVCEGDSCVVPESNFNAILNTVMSTVLTILLAMVMFSMGCNVEVHKFLGHIKRPWGIFVGFLCQFGIMPLTGFILSVASGILPVQAVVVLIMGCCPGGTGSNILAYWIDGDMDLSVSMTTCSTLLALGMMPLCLFVYTKMWVDSGTIVIPYDSIGISLVALVIPVSFGMFVNHKWPQKAKIILKIGSITGVILIVLIAVIGGILYQSAWIIEPKLWIIGTIFPIAGYSLGFFLARLAGQPWYRCRTVALETGMQNTQLCSTIVQLSFSPEDLNLVFTFPLIYTVFQLVFAAVILGIYVTYRKCYGKNDAEFLEKTDNEMDSRPSFDETNKGFQPDEK
As for B4, the Km in data set [7] (37.0 °C) was 272.3 µM.

B5: ASBT (Homo sapiens) (protein)
chain: T1 sequence (Q12908 1-348)
Turning to B5, the Km in data set [7] (37.0 °C) was 46.0 µM.

B6: ASBT S294T/I295V (ASBT→mAsbt) (Homo sapiens; I295V/S294T) (protein)
chain: T1 sequence (Q12908 1-348) with S294T, I295V
In the case of B6, the Km in data set [7] is 25.9 µM.
